The structures appear in SMILES notation.

One assay deals with T1, vanilloid receptor 1 (VR1/TRPV1 receptor) (Homo sapiens, UniProt Q8NER1).
T1 construct: expressed in transfected cells; host or cells: CHO K1
T1 sequence (Q8NER1 whole entry): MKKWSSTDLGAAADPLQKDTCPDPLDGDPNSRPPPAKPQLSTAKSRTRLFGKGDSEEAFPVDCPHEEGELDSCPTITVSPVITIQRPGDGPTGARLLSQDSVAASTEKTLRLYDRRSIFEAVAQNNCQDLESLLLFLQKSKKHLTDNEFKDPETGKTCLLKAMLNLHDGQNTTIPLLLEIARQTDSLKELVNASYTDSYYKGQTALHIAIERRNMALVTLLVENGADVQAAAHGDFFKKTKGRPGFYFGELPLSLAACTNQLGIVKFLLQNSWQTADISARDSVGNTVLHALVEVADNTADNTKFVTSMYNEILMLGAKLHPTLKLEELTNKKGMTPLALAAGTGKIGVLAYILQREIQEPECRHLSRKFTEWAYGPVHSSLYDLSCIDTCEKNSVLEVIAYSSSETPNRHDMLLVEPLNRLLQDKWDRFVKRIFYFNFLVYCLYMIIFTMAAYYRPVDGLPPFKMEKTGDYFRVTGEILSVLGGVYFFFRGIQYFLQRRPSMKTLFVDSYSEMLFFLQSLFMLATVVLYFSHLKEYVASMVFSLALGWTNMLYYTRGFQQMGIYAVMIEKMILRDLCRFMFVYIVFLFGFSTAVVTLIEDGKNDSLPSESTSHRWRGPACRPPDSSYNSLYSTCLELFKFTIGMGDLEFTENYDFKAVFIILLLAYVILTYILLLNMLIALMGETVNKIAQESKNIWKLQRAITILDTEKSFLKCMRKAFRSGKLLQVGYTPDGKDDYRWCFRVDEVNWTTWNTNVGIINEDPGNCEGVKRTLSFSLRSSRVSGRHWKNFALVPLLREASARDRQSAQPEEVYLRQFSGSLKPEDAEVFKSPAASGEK
As to the kind of experiment: Functional testing on the vanilloid receptor 1 (FLIPR Ca2+ influx assay, capsaicin). Format: cell-based, human being. Further details: key to (f) (human being) Cap: effect in words (agonist / no effect): AG=agonist; NE=no effect. The note with it: @5 μM; Cap=capsaicin; read-out: inhibition (as a percentage), (f) (human being) Cap. On the procedure: Furthermore, preference may be given to compounds according to the invention that cause a 50 percent displacement of capsaicin, which is present at a concentration of 100 nM, in a FLIPR assay with CHO K1 cells which were transfected with the human VR1 gene at a concentration of less than 2,000 nM, preferably less than 1,000 nM, particularly preferably less than 300 nM, most particularly preferably less than 100 nM, even more preferably less than 75 nM, additionally preferably less than 50 nM, most preferably less than 10 nM.
In the process, the Ca^2+ influx is quantified in the FLIPR assay with the aid of a Ca^2+-sensitive dye (type Fluo-4, Molecular Probes Europe BV, Leiden, the Netherlands) in a fluorescent imaging plate reader (FLIPR, Molecular Devices, Sunnyvale, USA), as described hereinafter.
Pharmacological Methods I. Functional Testing Carried Out on the Vanilloid Receptor 1 (VR1/TRPV1 Receptor) […]
The number of cells in the suspension is set to 3×10^5 per mL and 150 μL of this suspension are in each case introduced into a recess in the cell culture plates coated as described hereinbefore. In the incubator the plates are left for two to three days at 37° C., 5% by volume of CO2 and 95% relative humidity. Subsequently, the cells are loaded with 2 μM of Fluo-4 and 0.01% by volume of Pluronic F127 (Molecular Probes Europe BV, Leiden, the Netherlands) in HBSS buffer (Hank's buffered saline solution, Gibco Invitrogen GmbH, Karlsruhe, Germany) for 30 min at 37° C., washed 3 times with HBSS buffer and after further incubation for 15 minutes at room temperature used for Ca^2+ measurement in a FLIPR assay. The Ca^2+-dependent fluorescence is in this case measured before and after the addition of substances (λex=488 nm, λem=540 nm). Quantification is carried out by measuring the highest fluorescence intensity (FC, fluorescence counts) over time.
The FLIPR protocol consists of 2 substance additions. First the compounds to be tested (10 μM) are pipetted onto the cells and the Ca^2+ influx is compared with the control (capsaicin 10 μM). This provides the result in % activation based on the Ca^2+ signal after the addition of 10 μM of capsaicin (CP). After 5 minutes' incubation, 100 nM of capsaicin are applied and the Ca^2+ influx is also determined.
Desensitising agonists and antagonists lead to suppression of the Ca^2+ influx. The % inhibition is calculated compared to the maximum achievable inhibition with 10 μM of capsazepine. Triple analyses (n=3) are carried out and repeated in at least 3 independent experiments (N=4). Starting from the percentage displacement caused by different concentrations of the compounds to be tested of general formula I, IC50 inhibitory concentrations which cause a 50-percent displacement of capsaicin were calculated. Ki values for the test substances were obtained by conversion by means of the Cheng-Prusoff equation (Cheng, Prusoff; Biochem. Pharmacol. 22, 3099-3108, 1973).
The affinity of the compounds of to the invention for the vanilloid receptor 1 (VR1/TRPV1 receptor) was determined as described hereinbefore (pharmacological method I). The compounds of the invention display outstanding affinity to the VR1/TRPV1 receptor (Table 2). In Table 2 the abbreviations below have the following meanings: • Cap=capsaicin • AG=agonist • NE=no effect
The value after the “@” symbol indicates the concentration at which the inhibition (as a percentage) was respectively determined.
As to `Cc1ccc2cccc(NC(=O)NCc3ccc(C(C)(C)C)cc3N3CCC(C)CC3)c2n1` [Example 74, 1-(4-Tert-butyl-2-(4-methylpiperidin-1-yl)benzyl)-3-(2-methylquinolin-8-yl)urea], the inhibition at 5 µM is 24%.
The same measure, in the same setting: then `CC1CCN(c2nc(C(F)(F)F)ccc2CNC(=O)Nc2cc3ccccc3cn2)CC1` [Example 21, 1-(Isoquinolin-3-yl)-3-((2-(4-methylpiperidin-1-yl)-6-(trifluoromethyl)pyridin-3-yl)methyl)urea], with 39%.

The same assay, now with this note: Cap=capsaicin.
Regarding `CC1CCN(c2nc(C(F)(F)F)ccc2CNC(=O)Nc2ccnc3ccccc23)CC1` [Example 17, 1-((2-(4-Methylpiperidin-1-yl)-6-(trifluoromethyl)pyridin-3-yl)methyl)-3-(quinolin-4-yl)urea], the “(f) (human being) Cap: effect in words (agonist / no effect)” value is given as “AG”.
On the same count and under the same terms, then `CC1CCN(c2nc(C(F)(F)F)ccc2CNC(=O)Nc2nccc3ccccc23)CC1` [Example 20, 1-(Isoquinolin-1-yl)-3-((2-(4-methylpiperidin-1-yl)-6-(trifluoromethyl)pyridin-3-yl)methyl)urea], with “NE”; and `CC(=O)Nc1nc2cc(NC(=O)NCc3ccc(C(F)(F)F)nc3N3CCC(C)CC3)ccc2s1` [Example 31, N-(5-(3-((2-(4-methylpiperidin-1-yl)-6-(trifluoromethyl)pyridin-3-yl)methyl)ureido)benzo[d]thiazol-2-yl)acetamide], with “AG”.

Staying with this assay, now noted: Cap=capsaicin (100 nM); Ki from IC50 by Cheng-Prusoff equation; read-out: (f) Ki (human being) [nM] Cap.
Regarding `CC1CCN(c2nc(C(F)(F)F)ccc2CNC(=O)C(C)c2ccnc3[nH]ncc23)CC1` (stereo not shown) [Example 8, N-((2-(4-Methylpiperidin-1-yl)-6-(trifluoromethyl)pyridin-3-yl)methyl)-2-(1H-pyrazolo[3,4-b]pyridin-4-yl)propanamide], the Ki amounted to 2 nM.
The same measure, in the same setting: with `CC1CCN(c2nc(C(F)(F)F)ccc2CNC(=O)Nc2ccc3ncsc3c2)CC1` [Example 32, 1-(Benzo[d]thiazol-6-yl)-3-((2-(4-methylpiperidin-1-yl)-6-(trifluoromethyl)pyridin-3-yl)methyl)urea] the figure was 4 nM; with `COc1ccc(NC(=O)NCc2ccc(C(F)(F)F)nc2N2CCC(C)CC2)c2cnccc12` [Example 88, 1-(5-Methoxyisoquinolin-8-yl)-3-((2-(4-methylpiperidin-1-yl)-6-(trifluoromethyl)pyridin-3-yl)methyl)urea], 62 nM.
Still for that read-out and setting: with `CC1CCN(c2nc(C(F)(F)F)ccc2CNC(=O)Nc2cnc3ccccc3c2)CC1` [Example 12, 1-((2-(4-Methylpiperidin-1-yl)-6-(trifluoromethyl)pyridin-3-yl)methyl)-3-(quinolin-3-yl)urea] the figure was 9 nM.
On the same count and under the same terms, with `Cc1[nH]c2c(NC(=O)NCc3ccc(C(F)(F)F)nc3N3CCC(C)CC3)cccc2c1C` [Example 37, 1-(2,3-Dimethyl-1H-indol-7-yl)-3-((2-(4-methylpiperidin-1-yl)-6-(trifluoromethyl)pyridin-3-yl)methyl)urea] the figure was 4 nM; with `CC(=O)n1ncc2c(NC(=O)NCc3ccc(C(F)(F)F)nc3N3CCC(C)CC3)cccc21` [Example 49, 1-(1-Acetyl-1H-indazol-4-yl)-3-((2-(4-methylpiperidin-1-yl)-6-(trifluoromethyl)pyridin-3-yl)methyl)urea], 13 nM.
Turning to `Cc1ccc2cc(NC(=O)NCc3ccc(C(F)(F)F)nc3N3CCC(C)CC3)ccc2n1` [Example 70, 1-((2-(4-Methylpiperidin-1-yl)-6-(trifluoromethyl)pyridin-3-yl)methyl)-3-(2-methylquinolin-6-yl)urea], the inhibitory constant (Ki) was 68 nM.
Consider `Cc1cc2cccc(NC(=O)NCc3ccc(C(F)(F)F)nc3N3CCC(C)CC3)c2cn1` [Example 87, 1-(3-Methylisoquinolin-8-yl)-3-((2-(4-methylpiperidin-1-yl)-6-(trifluoromethyl)pyridin-3-yl)methyl)urea], for which the inhibitory constant (Ki) was 15 nM.
On the same count and under the same terms, with `Cc1nccc2cccc(NC(=O)NCc3ccc(C(F)(F)F)nc3N3CCC(C)CC3)c12` [Example 86, 1-(1-Methylisoquinolin-8-yl)-3-((2-(4-methylpiperidin-1-yl)-6-(trifluoromethyl)pyridin-3-yl)methyl)urea] the figure was 52 nM; with `O=C(NCc1ccc(C(F)(F)F)nc1OC1CCC1)Nc1cccc2ncccc12` [Example 68, 1-((2-Cyclobutoxy-6-(trifluoromethyl)pyridin-3-yl)methyl)-3-(quinolin-5-yl)urea], 2 nM.
The same measure, in the same setting: then `Cc1cc2cc(NC(=O)NCc3ccc(C(F)(F)F)nc3N3CCC(C)CC3)ccc2[nH]1` [Example 24, 1-(2-Methyl-1H-indol-5-yl)-3-((2-(4-methylpiperidin-1-yl)-6-(trifluoromethyl)pyridin-3-yl)methyl)urea], with 26 nM.
Consider `Cc1nccc2c(NC(=O)NCc3ccc(C(F)(F)F)nc3N3CCC(C)CC3)cccc12` [Example 78, 1-(1-Methylisoquinolin-5-yl)-3-((2-(4-methylpiperidin-1-yl)-6-(trifluoromethyl)pyridin-3-yl)methyl)urea], for which the inhibitory constant (Ki) is 1 nM.
On the same count and under the same terms, with `CC1CCN(c2nc(C(F)(F)F)ccc2CNC(=O)Nc2cccc3ncsc23)CC1` [Example 60, 1-(Benzo[d]thiazol-7-yl)-3-((2-(4-methylpiperidin-1-yl)-6-(trifluoromethyl)pyridin-3-yl)methyl)urea] the figure was 1 nM.
Take `CC1CCN(c2nc(C(F)(F)F)ccc2CNC(=O)Nc2cncc3ccccc23)CC1` [Example 18, 1-(Isoquinolin-4-yl)-3-((2-(4-methylpiperidin-1-yl)-6-(trifluoromethyl)pyridin-3-yl)methyl)urea]: the inhibitory constant (Ki) was 2 nM.
The same measure, in the same setting: with `CC1CCN(c2nc(C(F)(F)F)ccc2CNC(=O)Nc2ccc3cnn(C)c3c2)CC1` [Example 27, 1-(1-Methyl-1H-indazol-6-yl)-3-((2-(4-methylpiperidin-1-yl)-6-(trifluoromethyl)pyridin-3-yl)methyl)urea] the figure was 7 nM; with `CC1CCN(c2nc(C(F)(F)F)ccc2CNC(=O)Nc2ccc3scnc3c2)CC1` [Example 29, 1-(Benzo[d]thiazol-5-yl)-3-((2-(4-methylpiperidin-1-yl)-6-(trifluoromethyl)pyridin-3-yl)methyl)urea], 5 nM; with `CC1CCN(c2nc(C(F)(F)F)ccc2CNC(=O)Nc2ccc3cnccc3c2)CC1` [Example 83, 1-(Isoquinolin-6-yl)-3-((2-(4-methylpiperidin-1-yl)-6-(trifluoromethyl)pyridin-3-yl)methyl)urea], 7 nM.
Take `CC1CCN(c2nc(C(F)(F)F)ccc2CNC(=O)Nc2ccc3cc[nH]c3c2)CC1` [Example 22, 1-(1H-Indol-6-yl)-3-((2-(4-methylpiperidin-1-yl)-6-(trifluoromethyl)pyridin-3-yl)methyl)urea]: the Ki came out at 24 nM.
Same read-out and setting: with `CC1CCN(c2nc(C(F)(F)F)ccc2CNC(=O)Nc2cccc3[nH]ncc23)CC1` [Example 44, 1-(1H-indazol-4-yl)-3-((2-(4-methylpiperidin-1-yl)-6-(trifluoromethyl)pyridin-3-yl)methyl)urea] the figure was 0.4 nM; with `Cn1ncc2c(NC(=O)NCc3ccc(C(F)(F)F)nc3OCC3CCC3)cccc21` [Example 48, 1-((2-(Cyclobutylmethoxy)-6-(trifluoromethyl)pyridin-3-yl)methyl)-3-(1-methyl-1H-indazol-4-yl)urea], 2 nM.

The values are drawn from US9029378B2, “Substituted bicyclic aromatic carboxamide and urea compounds as vanilloid receptor ligands” (Gruenenthal GmbH, priority 2011, dated 2015).
